Our source for the IC50 values is patent publication US8338565B2, “Macrocyclic compounds for inhibition of tumor necrosis factor alpha” (Ensemble Therapeutics Corporation, priority 2008, dated 2012).

Numbered stars: 1 amine (or outer) side, 2 acyl side, 3 side chain; on linkers, the order of the positions; unused ones are H or OH. Bridge positions count the residues as written; N and C are the ends. Square brackets hold non-standard residues; d marks the D form. Peptide text beside a SMILES is read from it. * marks the point of attachment. Phe(3-CF3) = N[C@@H](Cc1cccc(C(F)(F)F)c1)C(=O)O; Phe(4-CF3) = N[C@@H](Cc1ccc(C(F)(F)F)cc1)C(=O)O; Phe(4-COOH) = N[C@@H](Cc1ccc(C(=O)O)cc1)C(=O)O; Bip = N[C@@H](Cc1ccc(-c2ccccc2)cc1)C(=O)O; dBip = N[C@H](Cc1ccc(-c2ccccc2)cc1)C(=O)O; dPhe(4-NH2) = Nc1ccc(C[C@@H](N)C(=O)O)cc1; Phe(4-NH2) = Nc1ccc(C[C@H](N)C(=O)O)cc1; d1Nal = N[C@H](Cc1cccc2ccccc12)C(=O)O; d(hPhe) = N[C@H](CCc1ccccc1)C(=O)O; d2Thi = N[C@H](Cc1cccs1)C(=O)O; d3Thi = N[C@H](Cc1ccsc1)C(=O)O; Suc = O=C(CCC(=O)[*:2])[*:1]; Dap = NC[C@H](N)C(=O)O; X1 = O=C(O)C1CCN(*)C1; Aib = CC(C)(N)C(=O)O; GABA = NCCCC(=O)O; βAla = NCCC(=O)O Some results are limits rather than exact numbers.

This assay deals with T1, TNFα / TNFα receptor (TNFα R1/Fc) (Homo sapiens, UniProt P01375).
T1 construct: purchased R&D Systems
T1 sequence (P01375 77-233 limits assumed, species assumed): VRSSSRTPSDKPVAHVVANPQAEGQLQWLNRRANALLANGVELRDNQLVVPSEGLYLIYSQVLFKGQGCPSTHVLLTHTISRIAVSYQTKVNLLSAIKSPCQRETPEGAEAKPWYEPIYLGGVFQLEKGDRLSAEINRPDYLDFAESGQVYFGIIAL
The assay can be described thus: Inhibition of binding of TNFα to the TNFα receptor (plate ELISA competition). The conditions noted are these: Table 2; read-out: Activity (IC50, inhibition of TNFα binding to TNFα R1/Fc). As for the experimental part:
The compounds listed in Table 2 below were assayed for ability to inhibit binding of TNFα to the TNFα receptor (TNFα R1/Fc). The assays were performed as described in the following procedure: TNFα (R&D Systems) was coated on high binding plate wells (Corning 96-well) at a single uniform concentration of 15 nM, 100 μL/well in PBS. The coating proceeded for 30 minutes at 37° C. then 10 minutes at 4° C. The coated plate was washed with PBST, then 250 μL/well of blocking solution (PBST 0.1% BSA, bovine serum albumin) was added and incubation proceeded for 30-45 minutes at room temperature with agitation. The solution phase competition proceeded separately with the dilutions of test compound in PBST (phosphate buffered saline with Tween 20), 2% DMSO in a polypropylene plate (Corning 96-well storage plate) with a single concentration, 8.33 nM of the high affinity receptor for TNFα (R&D Systems). This solution phase incubation proceeded for 30 minutes at room temperature with agitation and was then added to the washed TNFα coated assay plate, 100 μL/well, and was incubated for a further 30 minutes at room temperature with agitation. The assay plate was washed and 100 μL goat anti-human IgG (Fc) HRP labeled antibody in PBST, 13 pM, (KPL Cat#04-10-2) was added to each well. This incubation proceeded for 25-30 minutes at room temperature with agitation. Following this incubation step, the plate was washed and a 100 μL TMB solution (SUREBLUE™ TMB Peroxidase substrate, KPL) was added per well and allowed to stand approximately 3-5 minutes for development. The TMB reaction was stopped with the addition of 0.5N HCl and then the plate was read for absorbance at 450 nm.
Turning to `O=C1CCC(=O)N[C@H](CCc2ccccc2)C(=O)N[C@@H](Cc2ccc(-c3ccccc3)cc2)C(=O)N[C@H](Cc2ccccc2)C(=O)N[C@@H](C(=O)O)Cc2ccc(cc2)N1` [Compound 172] ([d(hPhe)][Bip][dF][dPhe(4-NH2)]-OH; linker N-4 via Suc), the IC50 is less than 10 µM.
For `CC(C)[C@H](NC(=O)[C@@H]1Cc2ccc(cc2)OCC(=O)N[C@@H](Cc2cccs2)C(=O)N[C@H](Cc2ccc(-c3ccccc3)cc2)C(=O)N[C@@H](CCc2ccccc2)C(=O)N1)C(=O)O` [Compound 487], the IC50 lay within 10 to 30 µM.
On to `O=C1COc2ccc(cc2)C[C@@H](C(=O)O)NC(=O)[C@H](CCc2ccccc2)NC(=O)[C@@H](Cc2ccc(-c3ccccc3)cc2)NC(=O)[C@H](Cc2ccc(-c3ccc(Cl)cc3)cc2)N1` [Compound 702], for which the IC50 is less than 10 µM.
Turning to `CC(=O)N[C@H]1CNC(=O)c2ccc(cc2)C[C@@H](C(=O)O)NC(=O)[C@@H](Cc2ccccc2)NC(=O)[C@H](Cc2ccc(-c3ccccc3)cc2)NC(=O)[C@@H](CCc2ccccc2)NC1=O` [Compound 266] (Ac-[Dap][d(hPhe)][Bip][dF][Phe(4-COOH)]-OH; lactam 1-5), the IC50 is more than 100 µM.
Under `O=C1COc2ccc(cc2)C[C@@H](C(=O)O)NC(=O)[C@H](Cc2ccccc2)NC(=O)[C@@H](Cc2cccc3ccccc23)NC(=O)[C@H](Cc2cccs2)N1` [Compound 357] stands more than 100 µM; under `Cc1ccc(C[C@@H]2NC(=O)COc3ccc(cc3)C[C@@H](C(=O)O)NC(=O)[C@H](CCc3ccccc3)NC(=O)[C@@H](Cc3ccc(-c4ccccc4)cc3)NC2=O)cc1` [Compound 692], less than 10 µM.
As to `O=C1CCC(=O)N[C@H](Cc2cccs2)C(=O)N[C@@H](Cc2ccc(-c3ccccc3)cc2)C(=O)N[C@H](Cc2ccsc2)C(=O)N[C@H](C(=O)O)Cc2ccc(cc2)N1` [Compound 75] ([d2Thi][Bip][d3Thi][Phe(4-NH2)]-OH; linker N-4 via Suc), the IC50 fell in the range of 30 to 100 µM.
For `O=C1COc2ccc(cc2)C[C@@H](C(=O)O)NC(=O)[C@H](CCc2ccccc2)NC(=O)[C@@H](Cc2ccc(-c3ccccc3)cc2)NC(=O)[C@H](CCCc2ccccc2)N1` [Compound 509], the IC50 was less than 10 µM.
Turning to `O=C1CCC(=O)N[C@H](Cc2cccs2)C(=O)N[C@@H](Cc2cccc(C(F)(F)F)c2)C(=O)N[C@H](Cc2ccccc2)C(=O)N[C@H](C(=O)O)Cc2ccc(cc2)N1` [Compound 208] ([d2Thi][Phe(3-CF3)][dF][Phe(4-NH2)]-OH; linker N-4 via Suc), the IC50 is more than 100 µM.
In the case of `O=C1CCC(=O)N[C@H](Cc2cccs2)C(=O)N[C@@H](Cc2ccc(-c3ccccc3)cc2)C(=O)N[C@H](Cc2ccccc2)C(=O)Nc2ccc(cc2)C[C@@H](C(=O)O)N1` [Compound 549], the IC50 is more than 100 µM.
Consider `O=C1COc2ccc(cc2)C[C@@H](C(=O)O)NC(=O)[C@@H](CCc2ccccc2)NC(=O)[C@H](Cc2ccc(-c3ccccc3)cc2)NC(=O)[C@@H](Cc2ccncc2)N1` [Compound 523], for which the IC50 was more than 100 µM.
Under `O=C1CCC(=O)N[C@H](Cc2cccc3ccccc23)C(=O)N[C@@H](Cc2ccc(C(F)(F)F)cc2)C(=O)N[C@H](Cc2ccccc2)C(=O)N[C@H](C(=O)O)Cc2ccc(cc2)N1` [Compound 142] ([d1Nal][Phe(4-CF3)][dF][Phe(4-NH2)]-OH; linker N-4 via Suc) stands 30 to 100 µM.
Regarding `CC(=O)N[C@@H]1CC(=O)Nc2ccc(cc2)C[C@@H](C(=O)O)NC(=O)[C@@H](Cc2ccccc2)NC(=O)[C@H](Cc2ccc(-c3ccccc3)cc2)NC(=O)[C@@H](Cc2cccs2)NC1=O` [Compound 376] (Ac-[dD][d2Thi][Bip][dF][Phe(4-NH2)]-OH; lactam 1-5), the IC50 lay in the range of 10 to 30 µM.
On to `NCCCC(=O)N[C@H]1CC(=O)Nc2ccc(cc2)C[C@@H](C(=O)N[C@@H](Cc2ccccc2)C(=O)O)NC(=O)[C@@H](Cc2ccccc2)NC(=O)[C@H](Cc2ccc(-c3ccccc3)cc2)NC(=O)[C@@H](Cc2cccs2)NC1=O` [Compound 529] (H-[GABA]D[d2Thi][Bip][dF][Phe(4-NH2)]F-OH; lactam 2-6), for which the IC50 was more than 100 µM.
For `O=C1COc2ccc(cc2)C[C@@H](C(=O)O)NC(=O)[C@H](Cc2ccc(-c3ccccn3)cc2)NC(=O)[C@@H](Cc2ccc(-c3ccccc3)cc2)NC(=O)[C@H](Cc2ccncc2)N1` [Compound 643], the IC50 was less than 10 µM.
Turning to `O=C1CCC(=O)N[C@H](CCc2ccccc2)C(=O)N[C@@H](Cc2ccc(-c3ccccc3)cc2)C(=O)N[C@H](Cc2ccccc2)C(=O)N[C@H](C(=O)N2CCC(C(=O)O)C2)Cc2ccc(cc2)N1` (some centres unmarked) [Compound 353] ([d(hPhe)][Bip][dF][Phe(4-NH2)]-X1; linker N-4 via Suc), the IC50 is more than 100 µM.
As to `CC(C)(NC(=O)[C@@H]1Cc2ccc(cc2)NC(=O)CCC(=O)N[C@H](Cc2cccs2)C(=O)N[C@@H](Cc2ccc(-c3ccccc3)cc2)C(=O)N[C@H](Cc2ccccc2)C(=O)N1)C(=O)O` [Compound 25] ([d2Thi][Bip][dF][Phe(4-NH2)][Aib]-OH; linker N-4 via Suc), the IC50 is less than 10 µM.
As to `O=C1COc2ccc(cc2)C[C@@H](C(=O)O)NC(=O)[C@H](Cc2ccccc2)NC(=O)[C@H](Cc2cccc(C(F)(F)F)c2)NC(=O)[C@H](Cc2cccs2)N1` [Compound 400], the IC50 was less than 10 µM.
As to `O=C1COc2ccc(cc2)C[C@@H](C(=O)O)NC(=O)[C@H](CCc2ccccc2)NC(=O)[C@@H](Cc2ccc(-c3ccccc3)cc2)NC(=O)[C@H](Cc2ccc([N+](=O)[O-])cc2)N1` [Compound 512], the IC50 is less than 10 µM.
Consider `O=C1CCNc2ccc(cc2)C[C@@H](C(=O)O)NC(=O)[C@@H](Cc2ccccc2)NC(=O)[C@H](Cc2ccc(-c3ccccc3)cc2)NC(=O)[C@@H](Cc2cccs2)N1` [Compound 6], for which the IC50 was more than 100 µM.
Consider `O=C1CCNC(=O)c2ccc(cc2)C[C@@H](C(=O)O)NC(=O)[C@@H](Cc2ccccc2)NC(=O)[C@@H](Cc2ccc(-c3ccccc3)cc2)NC(=O)[C@@H](CCc2ccccc2)N1` [Compound 469] ([βAla][d(hPhe)][dBip][dF][Phe(4-COOH)]-OH; lactam N-5), for which the IC50 was more than 100 µM.
With `O=C1CCC(=O)N[C@H](Cc2cccs2)C(=O)N[C@H](c2ccc(Br)cc2)CC(=O)N[C@H](Cc2ccccc2)C(=O)N[C@H](C(=O)O)Cc2ccc(cc2)N1` [Compound 107], the IC50 was more than 100 µM.
Regarding `O=C(O)[C@@H]1Cc2ccc(cc2)NC(=O)[C@H](O)[C@@H](O)C(=O)N[C@H](CCc2ccccc2)C(=O)N[C@@H](Cc2ccc(-c3ccccc3)cc2)C(=O)N[C@H](Cc2ccccc2)C(=O)N1` [Compound 246], the IC50 lay in the range of 30 to 100 µM.
With `O=C1COc2ccc(cc2)C[C@@H](C(=O)O)NC(=O)[C@@H](Cc2ccccc2)NC(=O)[C@H](Cc2ccc(-c3ccccc3)cc2)NC(=O)[C@H](Cc2cccs2)N1` [Compound 215], the IC50 was in the range of 30 to 100 µM.
For `O=C1CCC(=O)N[C@H](Cc2cccs2)C(=O)N[C@@H](Cc2ccc(-c3ccccc3)cc2)C(=O)N[C@@H](CO)C(=O)N[C@H](C(=O)O)Cc2ccc(cc2)N1` [Compound 60] ([d2Thi][Bip]S[Phe(4-NH2)]-OH; linker N-4 via Suc), the IC50 is more than 100 µM.
Take `O=C1COc2ccc(cc2)C[C@H](C(=O)N[C@H](CCc2ccccc2)C(=O)O)NC(=O)[C@H](Cc2ccccc2F)NC(=O)[C@@H](Cc2ccc(-c3ccccc3)cc2)NC(=O)[C@H](Cc2c[nH]c3ccccc23)N1` [Compound 735]: the IC50 lay within 10 to 30 µM.
